# Experimental data from patent EP4215522A1, “DERIVATIVES OF 4-CHROMONE AS INHIBITORS OF THE RDRP POLYMERASE OF SARS-COV-2 VIRUS AND METHOD FOR THE PREPARATION THEREOF” (priority 2022, dated 2023).
# Read-outs that look alike come from different tables or passages of the source.
# Experiments:
# [1] = Microsomal stability in mice; type: in vitro ADME; details: mouse microsomes
# Procedure: (§1) The solubility and stability of some compounds of the invention and known compounds were evaluated.
# Kinetic solubility = type: physicochemical
# Procedure: as §1
# Plasma stability in mice = type: in vitro ADME; details: mouse plasma
# Procedure: as §1
# [2] = target: RNA-dependent RNA polymerase (SARS-CoV-2) (Severe acute respiratory syndrome coronavirus 2, UniProt P0DTD1); experiment: in vitro enzymatic assay of RdRp activity (AlphaScreen detection); type: biochemical
# [3] = RdRp reaction 37°C, 60 minutes, duplicate, 30 minutes preincubation, 1% DMSO
# [4] = compound at 25 µM, read-out: % inhib. (25 µM)
# [5] = compound at 100 µM, read-out: % inhib. (100 µM)
SMILES,Microsomal stability in mice t1/2 [1] [h],Kinetic solubility Sk (Kinetic solubility) [µM],Plasma stability in mice t1/2 (Plasma stability in mice) [h],inhibition at 25 µM ([2]; read-out: % inhibition 25 µM) [%],inhibition at 100 µM ([2]; read-out: % inhibition 100 µM) [%],"IC50 [2, 3] [µM]","inhibition at 25 µM [2, 4] [%]","inhibition at 100 µM [2, 5] [%]","IC50 (µM) [2, 3]"
"O=c1c(O)c(-c2ccc(O)c(O)c2)oc2cc(O)cc(O)c12 [quercetin, reference compound]",>1,16,0.12,,,,,,
O=c1cc(-c2ccc(O)c(O)c2)oc2cc(F)cc(O)c12 [reference compound],,,,0,25,,,,
"Cc1c(-c2ccc(O)c(O)c2)oc2cc(O)cc(O)c2c1=O [(5a), 2-(3,4-dihydroxyphenyl)-5,7-dihydroxy-3-methyl-4H-chromen-4-one]",,32,,,,4.3 ± 1.1,94,99,
"O=C(OCCc1ccc(O)c(O)c1)c1cc(=O)c2c(O)cccc2o1 [(24c), 3,4-dihydroxyphenethyl-5-hydroxy-4-oxo-4H-chromen-2-carboxylate]",,,,,,44.1 ± 1.1,36,72,
COc1cccc2oc(-c3ccc(O)cc3C)cc(=O)c12 [reference compound],,,,3,34,,,,
"O=c1c(OCCO)c(-c2ccc(O)c(O)c2)oc2cc(O)cc(O)c12 [(9b), 2-(3,4-dihydroxyphenyl)-5,7-dihydroxy-3-(2-hydroxyethoxy)-4H-chromen-4-one]",>1,167,>2,,,6.1 ± 1,83,100,
"O=C(NCCNC(=O)c1cc(=O)c2c(O)cccc2o1)c1ccc(O)c(O)c1 [(28), N-(2-(3,4-dihydroxybenzamide)ethyl)-5-hydroxy-4-oxo-4H-chromen-2-carboxamide]",,,,,,15.9 ± 1.1,79,100,
"O=c1cc(C(CCCC(F)(F)F)c2ccc(O)c(O)c2)oc2cccc(O)c12 (stereo not shown) [(13d), 2-(1-(3,4-dihydroxyphenyl)-5,5,5-trifluoropentyl)-5-hydroxy-4H-chromen-4-one]",,,,,,,8,10,NO inhibition
"O=c1cc(-c2ccc(O)c(O)c2)oc2cc(O)cc(O)c12 [luteolin, reference compound]",>1,21,>2,,,,,,
"CCCc1c(-c2ccc(O)c(O)c2)oc2cc(O)cc(O)c2c1=O [(5b), 2-(3,4-dihydroxyphenyl)-5,7-dihydroxy-3-propyl-4H-chromen-4-one]",,13,,,,8.8 ± 0.7,72,98,
"O=C(Oc1ccc(O)c(O)c1)c1cc(=O)c2c(O)cccc2o1 [(24b), 3,4-dihydroxyphenyl-5-hydroxy-4-oxo-4H-chromen-2-carboxylate]",,<1,,,,2 ± 1,95,94,
"O=c1cc(CCc2ccc(O)c(O)c2)oc2cccc(O)c12 [(20), 2-(3,4-dihydroxyphenethyl)-5-hydroxy-4H-chromen-4-one]",>1,67,>2,,,5.8 ± 0.7,80,97,
"CC(c1ccc(O)c(O)c1)c1cc(=O)c2c(O)cccc2o1 (stereo not shown) [(13b), 2-(1-(3,4-dihydroxyphenyl)ethyl)-5-hydroxy-4H-chromen-4-one]",>1,165,>2,,,4.1 ± 1.4,65,100,
"CCCCC(c1ccc(O)c(O)c1)c1cc(=O)c2c(O)cccc2o1 (stereo not shown) [(13c), 2-(1-(3,4-dihydroxyphenyl)pentyl)-5-hydroxy-4H-chromen-4-one]",,,,,,,16,37,
"O=c1cc(Cc2ccc(O)c(O)c2)oc2cccc(O)c12 [(13a), 2-(3,4-dihydroxybenzyl)-5-hydroxy-4H-chromen-4-one]",>1,63,>2,,,8.5 ± 0.7,78,99,
"O=C(NCCNC(=S)Nc1ccc(O)c(O)c1)c1cc(=O)c2c(O)cccc2o1 [(31), N-(2-(3-(3,4-dihydroxyphenyl)thiourea)ethyl)-5-hydroxy-4-oxo-4H-chromen-2-carboxamide]",,<1,,,,3.4 ± 1.2,86,94,
"O=c1c(OCCCO)c(-c2ccc(O)c(O)c2)oc2cc(O)cc(O)c12 [(9c), 2-(3,4-dihydroxyphenyl)-5,7-dihydroxy-3-(3-hydroxypropoxy)-4H-chromen-4-one]",1,231,1.5,,,5.6 ± 0.1,71,95,
"O=c1cc(/C=C/c2ccc(O)c(O)c2)oc2cccc(O)c12 [(18), (E)-2-(3,4-dihydroxystyryl)-5-hydroxy-4H-chromen-4-one]",,<1,,,,7 ± 1.2,54,94,
O=c1cc(-c2ccc3c(c2)OC(F)(F)O3)oc2cc(O)cc(O)c12 [reference compound],,,,0,51,,,,
"CCCCOc1c(-c2ccc(O)c(O)c2)oc2cc(O)cc(O)c2c1=O [(9a), 3-butoxy-2-(3,4-dihydroxyphenyl)-5,7-dihydroxy-4H-chromen-4-one]",>1,156,>2,,,5.3 ± 1,52,98,
"O=C(Nc1ccc(O)c(O)c1)c1cc(=O)c2c(O)cccc2o1 [(24a), N-(3,4-dihydroxyphenyl)-5-hydroxy-4-oxo-4H-chromen-2-carboxamide]",1,65,1.38 ± 0.217,,,7.1 ± 0.8,80,100,
